Entries after “also recorded” stand apart in the source; their conditions may differ.

Test [1] relates to C. elegans model of ATD (sGFP::ATZ). Description: Quantification of ATZ accumulation in C. elegans model of ATD (Z worm). In kind it is in vivo. Conditions: 24 h incubation, FIG. 9. The method, then:
The C. elegans strain VK1882 (vkls1882 [nhx-2p::sGFP::ATZ; myo-2p::mCherry) was routinely cultured at 20° C. on nematode growth medium plates seeded with E. coli strain OP50. Quantitative analysis of ATZ accumulation was carried out by detection of fluorescence using the Thermofisher CellInsight CX-7 high content imager as previously described. L4 stage animals were placed into wells of 384-well plates (30 per well) containing G2 analogs or an equivalent volume of DMSO. Following incubation at 20° C. for 24 hours, sodium azide was added to a final concentration of […] to anesthetize the animals and then each well was imaged on the CX-7 high content imager for quantification.

The subject of the next test is PiZ mouse model of ATD. Kind of test: PiZ mouse model of ATD, oral gavage. Conditions: PiZ mouse. Type of test: in vivo. The procedure:
The PiZ mouse model has been described previously (Hidvegi 2010 Science 329 (5988): 229-232). For experiments involving drug administration in mice in vivo, doses of 5-50 mg/kg/day for the G2 analog were given for 3 weeks, and then liver histological and biochemical characteristics were assessed exactly as previously described (Hidvegi 2005J Biol Chem 280 (47): 39002-39015). Each experimental group contained 4-6 four- to six-month old male mice randomly chosen from littermates. G2 analogs were delivered by oral gavage. Control mice were littermates given DMSO by gavage. The outcome was determined by evaluating 1) the hepatic ATZ load by immunoblotting with anti-AT, immunostaining with PAS/D; 2) hepatic fibrosis using Sirius Red staining; 3) autophagy by immunoblotting with anti-LC3 and anti-p62, and imaging for GFP+autophagosomes; 4) monitoring blood glucose levels by glucometer and blood insulin levels by ELISA Wide Range Assay (CrystalChem). For immunostaining, liver samples were fixed in 10% Formalin, followed by staining with PAS after diastase and Sirius Red using standard techniques. Quantitative evaluation of immunostaining and histochemical staining was carried out by a member of the team that was blinded to group allocation. Blood glucose and insulin levels were quantified as previously described (Wang 2019 PLOS One 14: e0209748).
For immunoblot analysis of proteins in liver, the liver was snap frozen in liquid nitrogen and stored at −80° C. Liver was homogenized in 50 mM Tris-HCl pH 8.0, 150 mM NaCl, 2 mM KCl, 2 mM MgCl2, 0.5% Triton X-100, 0.5% deoxycholic acid containing 0.1 mM […] and Complete protease inhibitor cocktail from Roche. Total protein concentration was measured by BCA assay (Pierce) and followed by western blotting as described previously.

Test [2] deals with α1-antitrypsin Z variant (ATZ). Kind of test: Steady state levels of ATZ in HTO/Z cell line (immunoblot); activity of G2 analogs. Conditions: for effect on cellular ATZ levels: 48 hrs incubation, immunoblot, FIG. 8 / FIG. 14; for Activity: G2 and G2 analogs, positive activity if shown to have any activity, not quantified; for IC50: TABLE 1, assay not given. In kind it is cell-based, human. The procedure: For experiments with G2 analogs, Tet-off inducible cell lines were cultured in absence of doxycycline for at least 12 days to ensure expression of […] or its variants. The cells were then sub-cultured into separate monolayers in fresh complete growth medium and incubated for 48 hours in the absence or presence of G2 analog. […] All compounds available commercially were purchased except for G2-22, which was synthesized with routine chemistry.
Cells were lysed in NP40 buffer and then separated into insoluble and soluble fractions according to a previously established technique. Samples were subjected to immunoblot analysis for AT and GAPDH. For immmunoblot analysis to detect AT or GAPDH, cells were lysed in 50 mM Tris-HCl, 150 mM NaCl, 1% NP-40, pH 8.0. Protein concentrations were determined by BCA protein assay (Pierce Biotechnology, Rockford, IL). […] The membranes were blocked in 5% milk and then incubated overnight at 4° C. with primary antibody for AT (1:1000, Diasorin), LC3 (1:2000, Sigma), p62 (1:1000, Cell signaling, Danvers, MA), ATG5 (1:1000, Cell signaling), mTOR substrate sampler (1:1000 for all antibodies, Cell signaling). Donkey anti-goat Ig (Jackson Labs, Bar Harbor, ME), goat anti-rabbit lg (1:50,000), or goat anti-mouse Ig (1:50,000) were used as secondary antibodies in TBST at RT, 1 hour. Blots were visualized with ECL or West Femto from Pierce. Membranes were re-probed with GAPDH (1:5000, Sigma) as loading control. Insoluble samples were stained with Gel Code Blue as loading control.

Test [3] concerns HTT inclusion bodies (IBs) in HD-MSNs. Description: HTT inclusion bodies / mHTT aggregation in HD-MSNs. Type of test: cell-based, human. Conditions: HD-MSNs, compared to the inactive form, FIG. 13. The method, then: Adult dermal fibroblasts from symptomatic HD patients (Coriell NINDS and NIGMS Repositories: ND33947, ND30013, GM02173, GM04230, GM04198, GM02147), presymptomatic HD patients (GM04717, GM04861, GM04855, GM04831, GM04857, GM04829), and healthy controls (GM02171) were acquired from the Coriell Institute for Medical Research. The lentiviral cocktail of rtTA, pTight-9-124-BclxL, CTIP2, MYT1L, DLX1, and DLX2 was added to human fibroblasts for 16 h, then cells were washed and fed with fibroblasts media containing 1 μg/mL doxycycline (DOX). Briefly, transduced fibroblasts were maintained in fibroblasts media for two days with doxycycline before selection with Puromycin ([…]) on day 3, then were plated onto poly-ornithine, fibronectin, and laminin-coated coverslips on day 5. Cells were subsequently maintained in NeurobasalA (Gibco) media containing B-27 plus supplement and GlutaMAX supplemented with valproic acid (1 mM), dibutyryl cAMP ([…]), BDNF (10 ng/ml), NT-3 (10 ng/ml), and RA ([…]) until day 13. […]
Reprogramming cells were fixed with 4% paraformaldehyde (Electron Microscopy Sciences, #15710) for 20 min at room temperature (RT), and then permeabilized with 0.2% Triton X-100 for 10 min at RT. […] Images were captured using a Leica SP5X white light laser confocal system with Leica Application Suite (LAS) Advanced Fluorescence 2.7.3.9723.

Test [4] concerns striatal neurons from control 2171WT. Kind of test: Cell death (SytoX assay) in striatal neurons from control individual. In kind it is cell-based, human. Conditions: doses of 5 and 10 μM; data not shown. The method, then:
(§1) Striatal neurons from Huntington's patient GM 04198 and control 2171WT were prepared as previously described. Cells, at 24 days after induction, were incubated with G2 analog or an equivalent volume of DMSO for 14 days (drug/DMSO added with medium change every 4 days) and then cell death was determined by SytoX assay as previously described.

The subject of test [5] is striatal neurons from Huntington's patient GM 04198. Kind of test: Cell death (SytoX assay) in striatal neurons from Huntington's patient. Type of test: cell-based, human. The method, then: as §1

For the compound `Cn1ccc2cc(Cl)ccc2c1=O` [G2-19, 6-chloro-2-methylisoquinolin-1(2H)-one], the “effect on ATZ levels in intestinal cells of the ATZ worm” value in test [1] (GFP/RFP fluorescence) is on record as “dose-dependent decrease in ATZ levels; also recorded: not as potent as positive control prochlorperazine (PCP)”. Further, the “reduction in ATZ levels (fluorescence)” value in test [1] (at 40 µM) is roughly 50%. For the same compound, in the test with PiZ mouse model of ATD, the “hepatic ATZ load” value was “reduced hepatic ATZ load” and the insulin secretion entry is recorded as “without affecting insulin secretion”. Moreover, the “hepatic / liver fibrosis (Sirius Red staining)” value in the test with PiZ mouse model of ATD (G2-19: 3 weeks of treatment vs placebo) is “marked and statistically significant decrease”. In test [2], the “effect on cellular ATZ levels” value is recorded as “reduces ATZ levels in a dose-dependent manner; also recorded: more potent than G2-3” and the Activity entry is listed as “Active (Highly Active)”. Moreover, the “reduction of ATZ levels” value in test [2] (dose of 5 μM, 48 hrs, FIG. 8) is recorded as 60%. The “HTT inclusion body (IB)” value in test [3] is listed as “lowers HTT inclusion body (IB)”. Further, the “neuronal death (percent SYTOX positive cells)” value in test [4] was “no effect”. In test [5] (FIG. 11, dose-dependent between 0.5 and 10 μM, 14 days), the “cell death (percent SYTOX positive cells)” value is listed as “reduces cell death”. Also, in test [5] (second experiment, FIG. 12, doses of 5 and 10 μM), the “neuronal death (percent SYTOX positive cells)” value was “reduced neuronal death”.
Turning to `CNC(=O)c1cc(Cl)ccc1Oc1ccc(Cl)cc1` [G2-16, 5-chloro-2-(4-chlorophenoxy)-N-methylbenzamide], in test [2], the result was Inactive.
Same read-out and setting: the same measure for `Cn1ccc2c(Cl)cccc2c1=O` [G2-22, 5-chloro-2-methylisoquinolin-1(2H)-one]: “Active”; for `Cn1ccc2ccc(Cl)cc2c1=O` [G2-23, 7-chloro-2-methylisoquinolin-1(2H)-one]: “Inactive”; for `Cn1c(=O)ccc2cc(Cl)ccc21` [G2-58, 6-chloro-1-methylquinolin-2(1H)-one]: “Inactive”.
For `O=C(c1cc(Cl)c2ccc(=O)[nH]c2c1)N1CCCCC1` [G2-237, 5-chloro-7-(piperidine-1-carbonyl)quinolin-2(1H)-one], in test [2], the “effect on cellular ATZ levels” value is “reduce ATZ levels in a dose-dependent manner”, the result was Active and the IC50 fell in the range of 100 to 1000 nM.
With `CCCCCCOc1cc(Cl)c2ccc(=O)[nH]c2c1` [G-211, 5-chloro-7-(hexyloxy)quinolin-2(1H)-one], in test [2], the result was Active and the IC50 lay within 1000 to 10000 nM.
The like results for `O=c1ccc2c(-c3ccccc3)cc(Cl)cc2[nH]1` [G2-196, 7-chloro-5-phenylquinolin-2(1H)-one] were, in that order, “Active” and 1000 to 10000 nM.
As for `Cn1ccc2cc(S(C)(=O)=O)ccc2c1=O` [G2-29, 2-methyl-6-(methylsulfonyl)isoquinolin-1(2H)-one], the result in test [2] was Active.
On the same count and under the same terms, for `Cn1ccc2cc(-c3ccncc3)ccc2c1=O` [G2-42, 2-methyl-6-(pyridin-4-yl)isoquinolin-1(2H)-one] the value was “Active”.
